According to US20060188573A1, “Composite materials and particles” (priority 2003, published 2006):

Test system: blood
Assay: Blood compatibility: coagulation
Details: 4.0 ml blood added, circulating at 37 degrees C. for 60 minutes in heparin-coated tubes; duplicate
Method: The lipid/polymer hybrid particles have been characterized with respect to coagulation and hemolyse. Briefly, the experiments were carried out as follows:
Coagulation: Solvent/water mixture, with the same ratio used for particle formation, was used as negative control. Other samples were pure polymer, pure lipid, lipid/polymer composite particles and Taxol. Taxol was used as positive control. All experiments were carried out in dublicate.4.0 ml blood were added to each sample before the samples were circulating, at 37 degrees C. for 60 minutes, in tubes with the inside coated with heparin.

CCCCCCCC/C=C\CCCCCCCC(=O)OCC(O)CO (stereo not shown) [pure lipid, glyceryl-mono-oleate]
coagulation: no coagulation
